Laboratory results published in patent publication US9492499B2, “Peptides having anti-inflammatory properties” (Riptide Bioscience, Inc., priority 2014, dated 2016).
“Also recorded” adds a separate entry of the source. No end group written: not given here.

Experiments:
[1] = Tumor growth, MCF-7 non-metastatic breast cancer model in athymic nude mice; type: in vivo, mouse
Experimental: The polypeptides of the invention were also tested for their effect on tumor growth in a mouse model of non-metastatic breast cancer. MCF-7 human non-metastatic breast cancer cells were cultured at 37° C., 5% CO2 in normal growth media. Cells were harvested at 80% to 90% confluence. Immune compromised athymic nude mice (J:NU) were divided into 2 groups (9 animals per group). All mice were injected with ˜4.5×10^6 MCF-7 cells which had been stained with VIVO Tracker 680 and suspended in 200 μl of PBS/Matrigel mixture. Cells were injected subcutaneously on the dorsal surface of treated animals using a 22 gauge needle fitted with a 500 μl syringe.
Animals were designated vehicle and peptide treated. The peptide treated animals were treated with the RP-397 polypeptide (SEQ ID NO: 194). Freshly prepared RP-397 peptide was dissolved in sterile saline at a concentration of 100 μM and was used to treat the animals in the peptide group. Vehicle treated animals were injected with saline buffer alone. All treatments were injected into the tumor mass two times weekly for 5 weeks using a 27½ gauge needle fitted with a 1 ml syringe. Animal weights and tumor volumes were measured 3 times weekly and the fluorescence labeling was followed by VIVO Tracker 680 and IVIS Imaging.

NF-kB = NF-kB activity in 3T3-L1 preadipocyte Nfkb-RE/GFP reporter cells; type: cell-based; details: 0.01 μM peptide, lipopolysaccharide 20 ng/ml, GFP fluorescence
Experimental: NF-kB activity was monitored using the a 3T3-L1 preadipocyte cell line stably transformed with a Nfkb-RE/GFP construct, as described in Shen et al. (2013), “Adipocyte reporter assays: Application for identification of anti-inflammatory and antioxidant properties of mangosteen xanthones,” Mol. Nutr. Food Res. 00:1-9, the entire contents of which are incorporated herein by reference. NF-kB expressing adipocyte reporter cells were plated in DMEM in wells of a 24-well plate, at a seeding density of 5×10^4. On the second and third days post-plating, test peptides were individually added to the wells to a final concentration of 0.01 μM. The test peptides included RP-398 (SEQ ID NO: 155), and RP-185 (SEQ ID NO: 123). On day 4 post-plating, lipopolysaccharide was added to the medium to a final concentration of 20 ng/ml. Finally, on day 5 post-plating, the cells were harvested and a fluorescence assay performed to detect GFP expression levels.

[2] = test system: undifferentiated macrophages; test: Viable cell count of undifferentiated bone marrow macrophages; type: cell-based, mouse; details: 100 nM, 72 hours; sample approximately 70,000 per ml
Experimental: (§1) Primary bone marrow cells were collected from male C57BL/6J (The Jackson Laboratory, Bar Harbor, Me.). Mouse bone marrow macrophages were differentiated in vitro from the primary bone marrow cells by culturing in Dulbecco's minimal essential medium (DMEM) with 10% FBS and 30 ng/ml murine M-CSF (colony stimulating factor) for 6 days. At day 7, macrophages were plated into 12-well plates and cultured in DMEM (10% FBS) with (i) IL-4 peptide (20 ng/mL), (ii) INF-γ (10 ng/mL), or (iii) neither IL-4 nor INF-γ for 24 hours. After 24 hours, the media was replaced with pure DMEM and the cells were cultured for an additional 48 hours. The resulting macrophages were (i) M2-polarized, (ii) M1-polarized, or (iii) undifferentiated, respectively.
(§2) A macrophage sample containing approximately 70,000 […] macrophages per ml was incubated for 72 hours with 100 nM RP-182 (SEQ ID NO: 121). […] Thus, the RP-182 had little effect on the viability of M1 macrophages.

M1-polarized macrophages = test: Viable cell count of M1-polarized bone marrow macrophages; type: cell-based, mouse; details: 100 nM, 72 hours
Experimental: as §1, §2

M2-polarized macrophages = test: Viable cell count of M2-polarized bone marrow macrophages; type: cell-based, mouse; details: 100 nM, 72 hours
Experimental: as §1, §2

PD-1 = PD-1 staining of tumors in transgenic p53/KRAS mice; type: in vivo, mouse; details: 10 mg/kg daily subcu for one week, vs vehicle
Experimental: (§3) In one experiment, tumors in transgenic p53/KRAS mice were allowed to grow to approximately […] in volume, and the animals were then treated daily subcu for one week with either vehicle only, or 10 mg/kg RP-182, following which the animals were sacrificed and the tumors resected, formalin-fixed, and stained with antibodies to PD-1 (FIG. 19), PD-L1 and PD-L2 (FIG. 20).

PD-L1 = PD-L1 staining of tumors in transgenic p53/KRAS mice; type: in vivo, mouse; details: 10 mg/kg daily subcu for one week, vs vehicle
Experimental: as §3

PD-L2 = PD-L2 staining of tumors in transgenic p53/KRAS mice; type: in vivo, mouse; details: 10 mg/kg daily subcu for one week, vs vehicle
Experimental: as §3

[3] = test system: human triple-negative breast cancer cells (MDA-MB-231); test: Tumor volume, MDA-MB-231 triple-negative breast cancer in nude mice, combination with Gemcitabine; type: in vivo, mouse; details: Gemcitabine+RP-182 cohort, from day 32
Experimental: To test this theory, cohorts of immunocompromised (“nude”) mice were injected with ˜5×10^6 human triple-negative breast cancer cells (MDA-MB-231) under the upper left teat. Following this administration, one cohort received only vehicle; two of the cohorts received the chemotherapeutic agent Gemcitabine, at a q4d dose of 40 mg/kg of body weight. One of these cohorts also received RP-182 (SEQ ID NO: 121) at a daily dose of 5 mg/kg body weight; and a fourth cohort received only RP-182 at a daily dose of 5 mg/kg body weight. Beginning on day 32 of the study, in the Gemcitabine+RP-182 cohort, concentrations of RP-182 were increased to 20 mg/kg body weight. Tumor volume was assessed at various time points following initial cell administration (FIG. 21). After 50 days, the mice were sacrificed.

Q: What does the source list for FAKKFAKKF [RP-397, FAKKFAKKF]?
A: Body Weight After ([1]; after treatment): 30.1 g; Body Weight Before ([1]; before treatment): 25.1 g

Q: With FAKKFAKKFK [RP-398] as the sequence, how does the “NF-kB expression reduced relative to control cells” value (NF-kB) read?
A: approximately 58%

Q: For FFKKFFKKFK [RP-185], which “NF-kB expression reduced relative to control cells” value (NF-kB) is on record?
A: approximately 58%

Q: For KFRKAFKRFF [RP-182], which “viable cell count, undifferentiated macrophages” value [2] is on record?
A: 68,000 cells per ml

Q: What about the “viable cell count, M1-polarized macrophages” value (M1-polarized macrophages) of the same sequence?
A: 68,000 cells per ml

Q: What about the “viable cell count, M2-polarized macrophages” value (M2-polarized macrophages) of the same sequence?
A: 20,000 cells per ml

Q: And the “PD-1 expression in tumor” value (PD-1)?
A: significantly downregulated; also recorded: reduced

Q: What about the “PD-L1 expression in tumor” value (PD-L1) of the same sequence?
A: significantly downregulated; also recorded: reduced

Q: What about the “PD-L2 expression in tumor” value (PD-L2) of the same sequence?
A: significantly downregulated; also recorded: reduced

Q: And the “increase in tumor volume after RP-182 raised to 20 mg/kg” value [3]?
A: essentially halted
